Reference: publication PMC10563062 (2023)

Tested on: d(AAGGG)4 (DNA, G4) AAGGGAAGGGAAGGGAAGGG
Assay: UV-vis absorption titration (Soret band); CD
Conditions: 100 mM KCl; 10 mM Tris-HCl, 0.1 mM EDTA, pH 7.4; 7 μM TMPyP4; 68% hypochromicity, 16 nm red shift

binding: yes
Compound: C[n+]1ccc(-c2c3nc(c(-c4cc[n+](C)cc4)c4ccc([nH]4)c(-c4cc[n+](C)cc4)c4nc(c(-c5cc[n+](C)cc5)c5ccc2[nH]5)C=C4)C=C3)cc1
